# Data published in publication PMC11003488 (Journal of Enzyme Inhibition and Medicinal Chemistry, 2023).
# Key:
# Format in all cases: cell-based
# Conditions in all cases: Homo sapiens
# SF-539 = assay: NCI-60 SRB growth inhibition, one-dose and five-dose
# HL-60(TB) = assay: cells
# SK-MEL-5 = assay: NCI-60 SRB growth inhibition, one-dose and five-dose
# COLO 205 = assay: as above
# A498 = assay: as above
# SW-620 = assay: as above
# NCI-H522 = assay: as above
# OVCAR-4 = assay: as above
# SK-OV-3 = assay: as above
# PC-3 = assay: as above
# UACC-62 = assay: as above
# SK-MEL-28 = assay: as above
# K-562 = assay: as above
# SR = assay: as above
# HOP-62 = assay: as above
# NCI-H460 = assay: as above
# HOP-92 = assay: as above
# MDA-MB-435 = assay: as above
# LOX IMVI = assay: as above
# BT-549 = assay: as above
# A549/ATCC = assay: as above
# IGROV1 = assay: as above
# MDA-MB-468 = assay: as above
# TK-10 = assay: as above
# RXF 393 = assay: as above
# M14 = assay: as above
# CCRF-CEM = assay: as above
# OVCAR-5 = assay: as above
# SNB-75 = assay: as above
# SF-295 = assay: as above
# NCI-H226 = assay: as above
# SF-268 = assay: as above
# U251 = assay: as above
# HS 578 T = assay: as above
# NCI-H322M = assay: as above
# MOLT-4 = assay: as above
# 786-0 = assay: as above
# NCI/ADR-RES = assay: as above
# DU-145 = assay: as above
# SNB-19 = assay: as above
# MALME-3M = assay: as above
# HT29 = assay: as above
# [1] = read-out: percent growth inhibition
structure (smiles),measurement,setting,value
"O=C(/C=C/c1cccnc1)c1cccc(NCc2csc3ccccc23)c1 [Compound 5d, (E)-1–(3-((benzo[b]thiophen-3-ylmethyl)amino)phenyl)-3-(pyridin-3-yl)prop-2-en-1-one]",GI50,SF-539; SF-539,6.15 µM
same,inhibition at 10 µM,"SF-539; SF-539, read-out: percent growth inhibition",171%
same,GI50,HL-60(TB); HL-60,2.73 µM
same,inhibition at 10 µM,"HL-60(TB); HL-60, read-out: percent growth inhibition",135%
same,GI50,SK-MEL-5; SK-MEL-5,2.89 µM
same,inhibition at 10 µM,"SK-MEL-5; SK-MEL-5, read-out: percent growth inhibition",163%
same,GI50,COLO 205; COLO 205,11.6 µM
same,inhibition at 10 µM,"COLO 205; COLO 205, read-out: percent growth inhibition",86.5%
same,GI50,A498; A498,12.1 µM
same,inhibition at 10 µM,"A498; A498, read-out: percent growth inhibition",36.5%
same,GI50,SW-620; SW-620,1.84 µM
same,inhibition at 10 µM,"SW-620; SW-620, read-out: percent growth inhibition",166%
same,GI50,NCI-H522; NCI-H522,1.78 µM
same,inhibition at 10 µM,"NCI-H522; NCI-H522, read-out: percent growth inhibition",170%
same,GI50,OVCAR-4; OVCAR-4,4.27 µM
same,inhibition at 10 µM,"OVCAR-4; OVCAR-4, read-out: percent growth inhibition",82.5%
same,GI50,SK-OV-3; SK-OV-3,11.8 µM
same,inhibition at 10 µM,"SK-OV-3; SK-OV-3, read-out: percent growth inhibition",35.8%
same,GI50,PC-3; PC-3,3.76 µM
same,inhibition at 10 µM,"PC-3; PC-3, read-out: percent growth inhibition",99.2%
same,GI50,UACC-62; UACC-62,3.75 µM
same,inhibition at 10 µM,"UACC-62; UACC-62, read-out: percent growth inhibition",151%
same,GI50,SK-MEL-28; SK-MEL-28,3.55 µM
same,inhibition at 10 µM,"SK-MEL-28; SK-MEL-28, read-out: percent growth inhibition",145%
same,GI50,K-562; K562,3.14 µM
same,inhibition at 10 µM,"K-562; K562, read-out: percent growth inhibition",111%
same,GI50,SR,2.51 µM
same,GI50,HOP-62; HOP-62,10.2 µM
same,inhibition at 10 µM,"HOP-62; HOP-62, read-out: percent growth inhibition",65.2%
same,GI50,NCI-H460; NCI-H460,4.98 µM
same,inhibition at 10 µM,"NCI-H460; NCI-H460, read-out: percent growth inhibition",91.3%
same,GI50,HOP-92; HOP-92,10.2 µM
same,inhibition at 10 µM,"HOP-92; HOP-92, read-out: percent growth inhibition",39.4%
same,GI50,MDA-MB-435; MDA-MB-435,2.55 µM
same,inhibition at 10 µM,"MDA-MB-435; MDA-MB-435, read-out: percent growth inhibition",121%
same,GI50,LOX IMVI,1.69 µM
same,inhibition at 10 µM,LOX IMVI; [1],198%
same,GI50,BT-549; BT-549,2.75 µM
same,inhibition at 10 µM,"BT-549; BT-549, read-out: percent growth inhibition",174%
same,GI50,A549/ATCC; A549,11.5 µM
same,inhibition at 10 µM,"A549/ATCC; A549, read-out: percent growth inhibition",53.1%
same,GI50,IGROV1; IGROV-1,3.32 µM
same,inhibition at 10 µM,"IGROV1; IGROV-1, read-out: percent growth inhibition",108%
same,GI50,MDA-MB-468; MDA-MB-468,1.82 µM
same,inhibition at 10 µM,"MDA-MB-468; MDA-MB-468, read-out: percent growth inhibition",162%
same,GI50,TK-10; TK-10,6.18 µM
same,inhibition at 10 µM,"TK-10; TK-10, read-out: percent growth inhibition",60%
same,GI50,RXF 393; RXF 393,4.67 µM
same,inhibition at 10 µM,"RXF 393; RXF 393, read-out: percent growth inhibition",177%
same,GI50,M14; M14,4.14 µM
same,inhibition at 10 µM,"M14; M14, read-out: percent growth inhibition",129%
same,GI50,CCRF-CEM,3.01 µM
same,inhibition at 10 µM,CCRF-CEM; [1],134%
same,GI50,OVCAR-5; OVCAR-5,7.07 µM
same,inhibition at 10 µM,"OVCAR-5; OVCAR-5, read-out: percent growth inhibition",91.5%
same,GI50,SNB-75; SNB-75,3.34 µM
same,inhibition at 10 µM,"SNB-75; SNB-75, read-out: percent growth inhibition",69.9%
same,GI50,SF-295; SF-295,5.12 µM
same,inhibition at 10 µM,"SF-295; SF-295, read-out: percent growth inhibition",92.9%
same,GI50,NCI-H226; NCI-H226,3.43 µM
same,inhibition at 10 µM,"NCI-H226; NCI-H226, read-out: percent growth inhibition",111%
same,GI50,SF-268; SF-268,12 µM
same,inhibition at 10 µM,"SF-268; SF-268, read-out: percent growth inhibition",69.7%
same,GI50,U251; U-251,1.92 µM
same,inhibition at 10 µM,"U251; U-251, read-out: percent growth inhibition",198%
same,GI50,HS 578 T,4.49 µM
same,inhibition at 10 µM,HS 578 T; [1],76.9%
same,GI50,NCI-H322M,11.5 µM
same,inhibition at 10 µM,NCI-H322M; [1],42.6%
same,GI50,MOLT-4; MOLT-4,3.16 µM
same,inhibition at 10 µM,"MOLT-4; MOLT-4, read-out: percent growth inhibition",114%
same,GI50,786-0; 786-0,8.65 µM
same,inhibition at 10 µM,"786-0; 786-0, read-out: percent growth inhibition",182%
same,GI50,NCI/ADR-RES,2.15 µM
same,inhibition at 10 µM,NCI/ADR-RES; [1],101%
same,GI50,DU-145; DU-145,7.35 µM
same,inhibition at 10 µM,"DU-145; DU-145, read-out: percent growth inhibition",71.9%
same,GI50,SNB-19; SNB-19,3.86 µM
same,inhibition at 10 µM,"SNB-19; SNB-19, read-out: percent growth inhibition",134%
same,GI50,MALME-3M,5.92 µM
same,inhibition at 10 µM,MALME-3M; [1],104%
same,GI50,HT29; HT-29,3.12 µM
same,inhibition at 10 µM,"HT29; HT-29, read-out: percent growth inhibition",165%
